As usually defined, the IC50 is the concentration that gives 50% inhibition. A low value points to inhibition by little substance.

The target in this assay is T1, human GPR68 (Homo sapiens, UniProt Q15743).
T1 construct: host or cells: HEK293T
T1 sequence (Q15743 whole entry): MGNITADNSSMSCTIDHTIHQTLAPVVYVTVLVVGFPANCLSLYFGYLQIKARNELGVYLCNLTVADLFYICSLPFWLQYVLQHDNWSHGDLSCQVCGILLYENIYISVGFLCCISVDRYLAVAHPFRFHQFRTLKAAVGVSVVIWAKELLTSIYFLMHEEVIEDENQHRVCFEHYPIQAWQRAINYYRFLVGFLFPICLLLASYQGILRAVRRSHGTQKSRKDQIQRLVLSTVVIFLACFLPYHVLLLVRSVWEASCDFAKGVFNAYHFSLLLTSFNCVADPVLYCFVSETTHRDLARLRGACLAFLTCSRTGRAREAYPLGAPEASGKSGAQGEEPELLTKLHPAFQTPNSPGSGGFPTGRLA
In words: GPR68 cAMP GloSensor assay. It counts as cell-based. Particulars: HEK293T cells transiently transfected with GPR68 and GloSensor-22F cAMP reporter; activation at pH 6.0; 10 μM top, 3-fold, 10 points, in duplicate. The source says: The assay was developed to provide a quick screen assay to determine the potency and EC50s/IC50s of compounds against the GPR68 receptor with transient transfection cell.
GPR68 senses extracellular pH.
To determine the compound activity in GPR68 inhibition, an GPR68 dependent cAMP assay was developed and validated. Principle of this method: Expression of GPR68 in HEK293T cells by transient transfection of a GPR68-expression vector and a cAMP-sensing reporter vector (GloSensor, Promega). The transfected cells as a pool will be re-plated uniformly in assay plates, to minimize the in-experiment variation. The GPR68 receptor signal will be measured via Gs to CAMP increase as indicated by the Luc activation under basal (pH8.4 or pH7.4) or activated (pH6.5 or pH6.0) states.
• GloSensor™ CAMP Reagent (Promega, Cat #E1291) • human GPR68 NM_001177676.2_pcDNA3.1 (+)(Genscript) • The GloSensor™-22F CAMP Reporter Vector (Promega, Cat #E2301) • DMEM (Gibco, Cat #11995065) • FBS, Qualified, New Zealand origin (Gibco, Cat #10091148) • Penicillin-Streptomycin (Gibco, Cat #15140122) • 0.25% Trypsin-EDTA (Gibco, Cat #25200056) • PBS (Gibco, Cat #10010049) • 1x HBSS (Gibco, Cat #14175079) • HEPES (Gibco, Cat #15630080) • MES (Sigma, Cat #M2933-25G) • TAPS (Sigma, Cat #T5316-25G) • NaOH (Sigma, Cat #221465) • BSA (Sigma, Cat #B2064-50G) • Opti-MEM (Gibco, Cat #31985070) • DMSO (Sigma, Cat #D5879-1L) • FuGene HD Transfection Reagent (Promega, Cat #E2311)
• 1) Detached cells with 0.25% Trypsin when the cell confluence was about 80%. • 2)Resuspended the detached cells in 3 ml fresh cell culture medium. Counted the cell number and diluted the cells to proper density. • 3) Seeded 1.5∧10∧6 cells into 6-well plate (Cat. #3516) in 2 ml per well contained the need to transfection well so that the cells were 80-85% confluent at the time of transfection. • 4) Incubated the cells at 37° C. in a CO2 incubator for 6 hours.
• 5) Gently aspirated off the DMEM medium. Then added the Opti-MEM® Medium without serum into 6-well plate. • 6) Added 2.5 μg GPR68 and 2.5 μg GloSensor-22F in 1:1 ratio and 12 μl FuGeneHD into 120 μl of Opti-MEM® Medium without serum. Mixed gently and incubated for 15 min at room temperature. • 7) After the 15-minute incubation, added 137 μl of DNA-Transfection Reagent complexes to each well containing cells and medium. Mixed gently by rocking the plate back and forth. • 8) Incubated the cells at 37° C. in a co2 incubator for 19 h until they were ready to assay for transgene expression.
Seeded 40000 cells/well, 100 μl/well in 96-well plate (Cat. #3610) with complete DMEM medium; incubated overnight.
• 1) Compounds were solubilized in 100% DMSO to a concentration of 50 mM. • 2) Prepared compound DMSO solutions in 384 LDV echo plate: top concentration was 10 mM, 3-fold, 10 dose-response, so intermediate concentrations were created by serially diluting by […] beginning from the 10000 μM. 5 μL tested intermediate compounds+10 μl DMSO solutions were transferred to 384 LDV echo plate. Centrifuged the echo plate at 1000 rpm for 30s before Echo procedure. Compounds were transferred 180 nL volume by Echo550 to a 96-assay plate (corning, Cat #3599), to make compound 10 concentration points in duplicate (the final top concentration was 10 μM, 3-fold, 10 dose-response, in duplicate). Final DMSO concentration is 0.1%. • 3) For the Low control wells and High control wells, 180 nL DMSO were transferred by ECHO. • 4) Layout of assay plate 180 nL/well of compounds in 100% DMSO 180 nL/well DMSO in Low control wells and High control wells was as shown below. Compounds were prepared into assay plate at […] in 100% DMSO, the assay volume was […], and final DMSO concentration was 0.1%.
• 1)Removed culture medium, added 100 μL/well GloSensor (50×) to cells, then incubated for 2 h at room temperature.
• 2) Pre-read Luminescence at −5 min for background after 2 h incubation.
On to `O=C(/C=C/c1ccc2c(cnn2CC2CC2)c1)Nc1sccc1C(=O)O` [Compound 1], for which 0.593 µM corresponded to half-maximal inhibition (IC50). On to `O=C(/C=C/c1ccc2c(cnn2CC2CC2)c1)Nc1ccccc1F` [Compound 2, (E)-3-(1-(cyclopropylmethyl)-1H-indazol-5-yl)-N-(2-fluorophenyl)acrylamide], for which the half-maximal inhibitory concentration (IC50) is 0.861 µM. Compound `O=C(/C=C/c1cc2cnn(CC3CC3)c2cc1F)Nc1ccccc1C(=O)O` [Compound 4, (E)-2-(3-(1-(cyclopropylmethyl)-6-fluoro-1H-indazol-5-yl)acrylamido)benzoic acid] had a half-maximal inhibitory concentration (IC50) of 1.29 µM. As for `O=C(/C=C/c1ccc2c(cnn2CC2CC2)c1)Nc1ccccn1` [Compound 5, (E)-3-(1-(cyclopropylmethyl)-1H-indazol-5-yl)-N-(pyridin-2-yl)acrylamide], 1.41 µM corresponded to half-maximal inhibition (IC50). Take `O=C(/C=C/c1ccc2c(cnn2CC2CC2)c1)Nc1ccccc1C(=O)O` [Compound 6, (E)-2-(3-(1-(cyclopropylmethyl)-1H-indazol-5-yl)acrylamido)benzoic acid]: 1.68 µM corresponded to half-maximal inhibition (IC50). The compound `O=C(/C=C/c1ccc2c(cnn2CC2CC2)c1)Nc1cccnc1C(=O)O` [Compound 7, (E)-3-(3-(1-(cyclopropylmethyl)-1H-indazol-5-yl)acrylamido)picolinic acid] had a half-inhibitory concentration (IC50) of 2.02 µM. `O=C(/C=C/c1ccc2c(cnn2CC2CC2)c1)Nc1ccccc1` [Compound 8, (E)-3-(1-(cyclopropylmethyl)-1H-indazol-5-yl)-N-phenylacrylamide] had an IC50 of 2.08 µM. `Cn1ncc2cc(/C=C/C(=O)Nc3ccccn3)ccc21` [Compound 9, (E)-3-(1-methyl-1H-indazol-5-yl)-N-(pyridin-2-yl)acrylamide] yielded a concentration for half-maximal inhibition (IC50) of 3.46 µM. Turning to `O=C(/C=C/c1ccc2c(cnn2CC2CC2)c1)Nc1cccc(C(=O)O)n1` [Compound 10, (E)-6-(3-(1-(cyclopropylmethyl)-1H-indazol-5-yl)acrylamido)picolinic acid], the IC50 was 3.82 µM. With `Cn1ncc2cc(/C=C/C(=O)Nc3ccccc3)ccc21` [Compound 11, (E)-3-(1-methyl-1H-indazol-5-yl)-N-phenylacrylamide], the half-inhibitory concentration (IC50) worked out at 3.83 µM. On to `O=C(/C=C/c1ccc2c(cnn2CC2CC2)c1)Nc1ccccc1NS(=O)(=O)CC(F)(F)F` [Compound 12, (E)-3-(1-(cyclopropylmethyl)-1H-indazol-5-yl)-N-(2-((2,2,2-trifluoroethyl)sulfonamido)phenyl)acrylamide], for which it took 4.49 µM to reach half-maximal inhibition (IC50). `O=C(/C=C/c1ccc2c(cnn2CC2CC2)c1)Nc1ccccc1-c1noc(=O)[nH]1` [Compound 13, (E)-3-(1-(cyclopropylmethyl)-1H-indazol-5-yl)-N-(2-(5-oxo-4,5-dihydro-1,2,4-oxadiazol-3-yl)phenyl)acrylamide] came in with a half-inhibitory concentration (IC50) of 4.81 µM. Consider `O=C(/C=C/c1ccc2c(cnn2CC2CC2)c1)Nc1ccccc1-c1n[nH]c(=O)o1` [Compound 14, (E)-3-(1-(cyclopropylmethyl)-1H-indazol-5-yl)-N-(2-(5-oxo-4,5-dihydro-1,3,4-oxadiazol-2-yl)phenyl)acrylamide], for which half-maximal inhibition (IC50) was put at 5.72 µM. `O=C(O)c1nn(C(=O)/C=C/c2ccc3c(cnn3CC3CC3)c2)c2ccccc12` [Compound 15] returned an IC50 of 6.68 µM. The compound `O=C(/C=C/c1ccc2c(cnn2CC2CC2)c1)Nc1ccccc1-c1nnn[nH]1` [Compound 16, (E)-N-(2-(1H-tetrazol-5-yl)phenyl)-3-(1-(cyclopropylmethyl)-1H-indazol-5-yl)acrylamide] gave an IC50 of 6.9 µM. As for `CN(C)S(=O)(=O)NC(=O)c1ccccc1NC(=O)/C=C/c1ccc2c(cnn2CC2CC2)c1` [Compound 17], the IC50 was 7.02 µM.

In turn, `NS(=O)(=O)c1ccccc1NC(=O)/C=C/c1ccc2c(cnn2CC2CC2)c1` [Compound 18, (E)-3-(1-(cyclopropylmethyl)-1H-indazol-5-yl)-N-(2-sulfamoylphenyl)acrylamide] came in with an IC50 of 7.39 µM. In the case of `O=C(/C=C/c1ccc2c(cnn2CC2CC2)c1)NC1C2CC3CC(C2)CC1C3` (centres unmarked) [Compound 19], the concentration for half-maximal inhibition (IC50) turned out to be 9.7 µM. `O=C(/C=C/c1ccc2c(cnn2CC2CC2)c1)Nc1ncccc1F` [Compound 23] yielded a half-inhibitory concentration (IC50) of 17 µM.

For the compound `O=C(/C=C/c1ccc2c(cnn2CC2CC2)c1)Nc1ccc(F)cn1` [Compound 25], inhibition was half-maximal at 14.9 µM (IC50). On to `O=C(/C=C/c1ccc2c(cnn2CC2CC2)c1)Nc1c(F)cccc1C(=O)O` [Compound 36], for which inhibition was half-maximal at 11.5 µM (IC50). With `O=C(/C=C/c1ccc2c(cnn2CC2CC2)c1)Nc1ccc(F)cc1C(=O)O` [Compound 55], the midpoint of inhibition, the IC50, lay at 8.6 µM.

Compound `O=C(/C=C/c1ccc2c(cnn2CC2CC2)c1)Nc1cc(F)ccc1C(=O)O` [Compound 56] returned an IC50 of 3.52 µM.

Source of the values: US20260209183A1, “HETEROCYCLIC COMPOUNDS AND USES THEREOF” (CERTA THERAPEUTICS PTY LTD, priority 2022, published 2026).
